Measured values: patent publication US20160263214A1, “CALCIUM FLUORIDE COMPOSITIONS” (GLAXOSMITHKLINE BIOLOGICALS S.A., priority 2013, published 2016)

Assay: Composite organic content by thermogravimetry
Assay type: physicochemical
Details: for Weight losses Between 0 and 200° C. under N2 / Weight losses Between 200 et 600° C. under N2 / Weight losses Between 600 et 800° C. under Air: thermogravimetry, dry material; for Weight losses (single cell, temperature range not attributable): pure organic reference, one cell only
Method: Dry material sample were submitted to thermogravimetry. Weight losses from RT to 600° C. under N2 and from 600° C. to 800° C. under O2 were recorded and represent by difference the quantity of burned organic material.

Weight losses Between 0 and 200° C. under N2 | Weight losses Between 200 et 600° C. under N2 | Weight losses Between 600 et 800° C. under Air | Weight losses (single cell, temperature range not attributable) | Structure (SMILES)
0.2% | 50.6% | 49.2% | – | O=c1[nH]cnc2nc[nH]c12 [Hypoxanthine]
– | – | – | 100% | Cc1c[nH]c(=O)[nH]c1=O [Thymine]
0.1% | 74.6% | 25.3% | – | O=c1[nH]c(=O)c2[nH]c(=O)[nH]c2[nH]1 [Uric acid]
– | – | – | 100% | O=C(O)CCCCC(=O)O [Adipic acid]
